Values after ≈ are worked out from the molar mass of the structure shown. Where two headings read alike, the source gives them in different places. Values belong to the molecule of their own block, whether it stands above or below them. Square brackets hold non-standard residues; d marks the D form. Peptide text beside a SMILES is read from it.
Experiments:
[1] = tested on: S. aureus USA300; assay: microbe, parasite or virus in culture; type: cell-based, Staphylococcus aureus; details: for MIC: read-out: MIC S. aureus USA300 (MRSA)
Outline: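 Broth microdilution: log-phase cultures in tryptic soy broth diluted to OD600 0.001, exposed to two-fold diluted peptides at 37° C overnight, growth read at 630 nm. Medium effects on S. aureus USA300 tested with up to 200 mM NaCl, 2 mM CaCl2, 5-10% human serum, mouse plasma, fluids or tissue homogenate supernatants.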

[2] = tested on: E. faecium V286-17 (VRE); assay: microbe, parasite or virus in culture; type: cell-based, Enterococcus faecium; details: read-out: MIC E. faecium V286-17 (VRE)
Text: (§1) The bacterial strains used include the Gram-positive strains Staphylococcus aureus USA300 LAC, S. epidermidis 1457, and Bacillus subtilis 168, as well as the Gram-negative isolates Escherichia coli K12 and Acinetobacter baumannii B2367-12. Additional, drug resistance strains include Gram-positive Enterococcus faecium V286-17 (VRE) and S. aureus M838-17 (MRSA) and Gram-negative E. coli E423-17, E. coli E416-17 (ampC), and P. aeruginosa E411-17. Bacteria were cultivated in tryptic soy broth (TSB) (BD Bioscience, MD).
(§2) The antibacterial activity of peptides was evaluated using a standard broth microdilution protocol with minor modifications as described (Mishra, et al. (2012) J. Am. Chem. Soc., 134:12426-12429). In brief, logarithmic phase bacterial cultures (i.e., optical density at 600 nm≈0.5) were diluted to OD600 0.001 and partitioned into a 96-well polystyrene microplate at 90 μL per well. After treatment with 10 μL of peptide solutions two fold diluted to various concentrations, microplates were incubated at 37° C. overnight and read on a ChroMate® 4300 Microplate Reader at 630 nm (GMI, Ramsey, MN). […] To study the influence of medium conditions on the antimicrobial activity of peptides against S. aureus USA300, up to 200 mM sodium chloride (NaCl), 2 mM of calcium chloride, 5-10% of human serum, mouse plasma, fluid, or supernatants of tissue homogenates were included into the assays.
(§3) The bacterial strains used include the Gram-positive bacteria methicillin-resistant Staphylococcus aureus USA300, Enterococcus faecium V286-17 (VRE), S. aureus M838-17 (MRSA) and Gram-negative bacteria E. coli E423-17, E416-7 (ampC), P. aeruginosa E411-17, PA01, K. pneumoniae E406-17, ATCC13883, and A. baumannii B26-16. Bacteria were cultivated in tryptic soy broth (TSB) from BD Bioscience.
(§4) The antibacterial activity of peptides was evaluated using a standard broth microdilution protocol with minor modifications (Mishra, et al. (2017) Acta Biomater., 49:316-328). In brief, logarithmic phase bacterial cultures (i.e., optical density at 600 nm≈0.5) were diluted to 0.001 OD and aliquoted 90 μL per well into a 96-well polystyrene microplate. Added 10 μL peptides per well with various concentrations, plates were incubated at 37° C., overnight. Post incubation the plates are read at 630 nm using a ChroMate® Microplate Reader (GMI). […] To study the influence of medium conditions on the antimicrobial activity of peptides against S. aureus USA300 at different pHs (6.8, 7.2, and 8.0), 150 mM sodium chloride (NaCl), 5-10% of human serum, mouse plasma, and peritoneal fluid were included into the assays.

[3] = tested on: P. aeruginosa E411-17; assay: microbe, parasite or virus in culture; type: cell-based, Pseudomonas aeruginosa; details: for MIC: read-out: MIC P. aeruginosa E411-17
Text: as §1, §2, §3, §4

[4] = tested on: K. pneumoniae E406-17; assay: microbe, parasite or virus in culture; type: cell-based, Klebsiella pneumoniae; details: for MIC: read-out: MIC K. pneumoniae E406-17
Experimental: as §2, §3, §4

[5] = tested on: E. coli E423-17; assay: microbe, parasite or virus in culture; type: cell-based, Escherichia coli; details: read-out: MIC E. coli E423-17
Text: as §1, §2, §3, §4

[6] = tested on: A. baumannii B26-16; assay: microbe, parasite or virus in culture; type: cell-based, Acinetobacter baumannii; details: read-out: MIC A. baumannii B26-16
Experimental: as §3, §4

[7] = in vivo; details: BALB/c, mouse, plasma, iv, 10 mg/kg
Experimental: The efficacy of the two peptides was also investigated in non-neutropenic mice against S. aureus USA300. A higher bacterial inoculum at 2×10^8 CFU per mouse was used. […] To evaluate the peptide pharmacokinetics (Chhonker, et al. (2018) Biomed. Chromatogr. e4389), the plasma clearance rate of horine after intravenous injection of 10 mg/kg into BALB/c mice was followed.

[8] = tested on: Klebsiella pneumoniae clinical strains; assay: microbe, parasite or virus in culture; details: Klebsiella pneumoniae
Experimental: as §4

[9] = tested on: S. aureus M838-17 (MRSA); assay: microbe, parasite or virus in culture; type: cell-based, Staphylococcus aureus; details: M838-17
Outline: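 Peptides were serially diluted two-fold against bacteria grown in tryptic soy broth to log phase (OD600 ≈0.5), then seeded at OD600 0.001. Plates were held overnight at 37° C and read at 630 nm. USA300 was also tested at pH 6.8, 7.2 and 8.0, with 150 mM NaCl or 5-10% serum, plasma or peritoneal fluid.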

[10] = tested on: E. coli ATCC 25922; type: cell-based, Escherichia coli; details: ATCC 25922
Outline: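 Peptides, serially diluted two-fold, were incubated overnight at 37 °C with E. coli ATCC 25922 from log-phase cultures adjusted to OD600 0.001. Turbidity at 630 nm served as the read-out in this broth microdilution format.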

[11] = tested on: K. pneumoniae ATCC 13883; type: cell-based, Klebsiella pneumoniae; details: ATCC 13883
Outline: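 Broth microdilution in tryptic soy broth: log-phase cultures (OD600 ≈0.5) diluted to OD600 0.001, given two-fold peptide dilutions, incubated overnight at 37° C. Growth read at 630 nm.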

[12] = Hemolytic assay; type: cell-based, human; details: human, human red blood cells, 2% (v/v)
Outline: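 HL50 marks the peptide level lysing half of a 2% (v/v) suspension of washed human erythrocytes after 1 h at 37 °C. Released hemoglobin measured at 545 nm, scaled between PBS (0%) and Triton X-100 (2% or 1%; 100%). Selectivity index computed as HL50 over MIC.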

MIC S. aureus M838-17 [9]: 3.1 µM (≈ 4.17 µg/mL) | MIC P. aeruginosa 411-17 ([3]; E411-17): 6.25 µM (≈ 8.4 µg/mL) | MIC K. pneumonia 406-17 ([4]; E406-17): 6.25 µM (≈ 8.4 µg/mL)
Molecule: CC(C)C[C@H](NC(=O)[C@H](Cc1c[nH]c2ccccc12)NC(=O)[C@H](Cc1c[nH]c2ccccc12)NC(=O)[C@H](Cc1c[nH]c2ccccc12)NC(=O)[C@H](Cc1c[nH]c2ccccc12)NC(=O)[C@H](CCCNC(=N)N)NC(=O)[C@H](CCCNC(=N)N)NC(=O)[C@@H](N)CCCNC(=N)N)C(N)=O [WW306, RRRWWWWL] (H-RRRWWWWL-NH2; N-terminus and C-terminus assumed)
HC50 at 1 h [12]: 60 µM

MIC S. aureus M838-17 [9]: 12.5 µM (≈ 16.3 µg/mL) | MIC P. aeruginosa 411-17 ([3]; E411-17): 25 µM (≈ 32.5 µg/mL) | MIC K. pneumonia 406-17 ([4]; E406-17): >50 µM
Molecule: C[C@H](NC(=O)[C@H](Cc1c[nH]c2ccccc12)NC(=O)[C@H](Cc1c[nH]c2ccccc12)NC(=O)[C@H](Cc1c[nH]c2ccccc12)NC(=O)[C@H](Cc1c[nH]c2ccccc12)NC(=O)[C@H](CCCNC(=N)N)NC(=O)[C@H](CCCNC(=N)N)NC(=O)[C@@H](N)CCCNC(=N)N)C(N)=O [WW308, RRRWWWWA] (H-RRRWWWWA-NH2; N-terminus and C-terminus assumed)
HC50 at 1 h [12]: > 200 µM

The next lines start with the molecule.

Molecule: CC(C)C[C@@H](NC(=O)[C@@H](Cc1c[nH]c2ccccc12)NC(=O)[C@@H](Cc1c[nH]c2ccccc12)NC(=O)[C@H](N)Cc1c[nH]c2ccccc12)C(=O)N[C@H](CCCNC(=N)N)C(=O)N[C@H](CCCNC(=N)N)C(=O)N[C@H](CCCNC(=N)N)C(=O)N[C@H](Cc1c[nH]c2ccccc12)C(N)=O [D-horine] (H-[dW][dW][dW][dL][dR][dR][dR][dW]-NH2; N-terminus and C-terminus assumed)
MIC ([1]; USA300): 4 µM (≈ 5.37 µg/mL) | MIC ([2]; V286-17 (VRE)): 4 µM (≈ 5.37 µg/mL) | MIC ([3]; E411-17): 32 µM (≈ 43 µg/mL) | MIC ([4]; E406-17): >32 µM | MIC ([5]; E423-17): 16 µM (≈ 21.5 µg/mL) | MIC ([6]; B26-16): >32 µM | level at 5 min [7]: 192 µg/mL | level at 24 h [7]: 170 ng/mL

Molecule: NC[C@H]1O[C@H](O[C@H]2[C@H](O)[C@@H](O[C@H]3O[C@H](CO)[C@@H](O)[C@H](N)[C@H]3O)[C@H](N)C[C@@H]2N)[C@H](N)C[C@@H]1O [Tobramycin, reference compound]
MIC ([1]; Staphylococcus aureus, MRSA / USA300, Table 14): 4 µM (≈ 1.87 µg/mL) | MIC ([2]; Enterococcus faecium, VRE, Table 14): > 8 µM | MIC ([3]; Pseudomonas aeruginosa, E41117, Table 14): 2 µM (≈ 0.935 µg/mL) | MIC ([4]; Klebsiella pneumoniae, E40617, Table 14): > 8 µM | MIC ([5]; Escherichia coli, E42317, Table 14): 8 µM (≈ 3.74 µg/mL) | MIC ([6]; Acinetobacter baumannii, B2616, Table 14): 4 µM (≈ 1.87 µg/mL) | MIC ([8]; strain KP-231-18): 64 µM (≈ 29.9 µg/mL) | MIC ([8]; strain KP-232-18): > 64 µM | MIC ([8]; strain KP-245-18): 4 to 8 µM (≈ 1.87 to 3.74 µg/mL) | MIC ([8]; strain KP-249-18): 8 µM (≈ 3.74 µg/mL) | MIC ([8]; strain KP-253-18): 8 µM (≈ 3.74 µg/mL) | MIC ([8]; strain KP-256-18): > 64 µM | MIC ([8]; strain KP-257-18): > 64 µM | MIC ([8]; strain KP-262-18): 4 µM (≈ 1.87 µg/mL) | MIC ([8]; strain KP-270-18): 16 µM (≈ 7.48 µg/mL) | MIC ([8]; strain KP-B42-15): 8 µM (≈ 3.74 µg/mL) | MIC ([8]; strain KP-B53-15): 4 µM (≈ 1.87 µg/mL) | MIC ([8]; strain KP-B73-15): 4 µM (≈ 1.87 µg/mL) | MIC ([8]; strain KP-B77-15): 4 µM (≈ 1.87 µg/mL) | MIC ([8]; strain KP-B1725-18): 8 µM (≈ 3.74 µg/mL)

Molecule: CC[C@H](C)[C@H](NC(=O)[C@H](CCCCN)NC(=O)[C@@H](N)CCCNC(=N)N)C(=O)N[C@@H](Cc1c[nH]c2ccccc12)C(=O)N[C@@H](Cc1c[nH]c2ccccc12)C(=O)N[C@@H](Cc1c[nH]c2ccccc12)C(=O)N[C@@H](Cc1c[nH]c2ccccc12)C(=O)N[C@@H](CC(C)C)C(N)=O [WW295, RKIWWWWL] (H-RKIWWWWL-NH2; N-terminus and C-terminus assumed)
MIC S. aureus M838-17 [9]: 6.2 to 12.5 µM | MIC S. aureus USA 300 ([1]; USA300): 3.1 to 6.2 µM | MIC ([1]; USA300): 4 µM (≈ 5.09 µg/mL) | MIC E. coli ATCC 25922 [10]: 6.2 µM (≈ 7.89 µg/mL) | MIC K. pneumoniae ATCC 13883 [11]: 3.1 to 6.2 µM | HC50 at 1 h [12]: 57 µM | MIC ([2]; V286-17 (VRE)): 4 µM (≈ 5.09 µg/mL) | MIC P. aeruginosa 411-17 ([3]; E411-17): >50 µM | MIC ([3]; E411-17): 32 µM (≈ 40.7 µg/mL) | MIC K. pneumonia 406-17 ([4]; E406-17): 12.5 µM (≈ 15.9 µg/mL) | MIC ([4]; E406-17): 16 µM (≈ 20.4 µg/mL) | MIC ([5]; E423-17): 8 µM (≈ 10.2 µg/mL) | MIC ([6]; B26-16): 8 µM (≈ 10.2 µg/mL)

Molecule: CC(C)C[C@H](NC(=O)[C@H](Cc1c[nH]c2ccccc12)NC(=O)[C@H](Cc1c[nH]c2ccccc12)NC(=O)[C@H](Cc1c[nH]c2ccccc12)NC(=O)[C@H](CCCNC(=N)N)NC(=O)[C@H](CCCNC(=N)N)NC(=O)[C@H](CCCNC(=N)N)NC(=O)[C@@H](N)CCCNC(=N)N)C(N)=O [WW309, RRRRWWWL] (H-RRRRWWWL-NH2; N-terminus and C-terminus assumed)
MIC S. aureus M838-17 [9]: 6.25 µM (≈ 8.21 µg/mL) | HC50 at 1 h [12]: > 200 µM | MIC P. aeruginosa 411-17 ([3]; E411-17): 12.5 µM (≈ 16.4 µg/mL) | MIC K. pneumonia 406-17 ([4]; E406-17): >50 µM

Molecule: Colistin [reference compound]
MIC ([1]; Table 14): >8 µM | MIC ([2]; Table 14): >8 µM | MIC ([3]; Table 14): 2 µM | MIC ([4]; Table 14): >8 µM | MIC ([5]; Table 14): 1 µM | MIC ([6]; Table 14): 1 µM
